Consider 28 compounds from US10407409B2, “6-(5-hydroxy-1H-pyrazol-1-yl)nicotinamide inhibitors of PHD” (Takeda Pharmaceutical Company Limited, priority 2013, dated 2019).

For experiment [1], the target named is PHD2 enzyme (residues 181-417) (Homo sapiens (Human), UniProt Q9GZT9). The experiment in a line: Inhibition of PHD enzyme (LC/MS peptide hydroxylation assay). Type of experiment: biochemical. The conditions noted are these: PHD2 (residues 181-417) 5 nM, 60 min pre-incubation, -log(IC50), IC50 molar. The method, boiled down: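 Hydroxylated peptide quantified by LC/MS after 60 min turnover of 1 uM biotinylated peptide with 2 uM 2-oxoglutarate and 1 mM ascorbate, stopped by excess tight-binding inhibitor. Beforehand, 5 nM enzyme and compound were preincubated 60 min at RT, pH 7.3 HEPES/KCl/TCEP/FeCl2/BSA buffer. Values as pIC50 (−log molar IC50).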

Experiment [2] deals with HIF1a protein in H9c2 rat cardiomyocytes. The experiment in a line: Cell-based HIF-alpha stabilization assay (inhibition of PHD in cells). The conditions noted are these: Rattus norvegicus, H9c2, 24 h, 24 hrs compound incubation, HIF1a protein by ELISA, read-out: Inhibition of PHD in cells (pEC50) (converted). The gist of the method: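 HIF1a stabilization was measured by ELISA on lysates of H9c2 rat cardiomyocytes after 24 h exposure to 11 serial compound concentrations, expressed relative to the desferrioxamine maximum. Curve fits gave EC50. EC50pos denotes the concentration producing half the desferrioxamine maximal response.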
On the technique in general: An ELISA detects its analyte on a solid surface through an enzyme-linked reagent.

PHD2 enzyme (residues 181-417), sequence (Q9GZT9 181-417): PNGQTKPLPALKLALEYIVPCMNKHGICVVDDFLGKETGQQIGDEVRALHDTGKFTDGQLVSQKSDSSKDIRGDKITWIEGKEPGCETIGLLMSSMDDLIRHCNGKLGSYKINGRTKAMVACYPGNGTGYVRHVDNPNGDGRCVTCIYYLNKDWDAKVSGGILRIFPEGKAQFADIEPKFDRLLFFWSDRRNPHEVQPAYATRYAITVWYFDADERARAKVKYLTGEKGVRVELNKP

As for `N#Cc1ccc(-c2cnn(-c3ccc(C(=O)NCC4CCOCC4)cn3)c2O)cc1F` [Example 189, 6-(4-(4-cyano-3-fluorophenyl)-5-hydroxy-1H-pyrazol-1-yl)-N-((tetrahydro-2H-pyran-4-yl)methyl)nicotinamide], the “PHD Inhibition (pIC50)” value in experiment [1] is on record as 7.49. Besides, the EC50 in experiment [2] was 4680 nM.
`O=C(NCC1CCOCC1)c1ccc(-n2ncc(-n3ccc(=O)cc3)c2O)nc1` [Example 190, 6-(5-hydroxy-4-(4-oxopyridin-1(4H)-yl)-1H-pyrazol-1-yl)-N-((tetrahydro-2H-pyran-4-yl)methyl)nicotinamide]: the “PHD Inhibition (pIC50)” value in experiment [1] is 7. In experiment [2], the EC50 was 15800 nM.
The matching figures for `O=C(NCc1ccccc1)c1ccc(-n2ncc(-n3ccc(=O)cc3)c2O)nc1` [Example 191, N-benzyl-6-(5-hydroxy-4-(4-oxopyridin-1(4H)-yl)-1H-pyrazol-1-yl)nicotinamide]: 7.19 and 6760 nM.
The matching figures for `O=C(NCC1CCOCC1)c1ccc(-n2ncc(-n3ccccc3=O)c2O)nc1` [Example 192, 6-(5-hydroxy-4-(2-oxopyridin-1(2H)-yl)-1H-pyrazol-1-yl)-N-((tetrahydro-2H-pyran-4-yl)methyl)nicotinamide]: 6.84 and 50100 nM.
The matching figures for `O=C(NCc1ccccc1)c1ccc(-n2ncc(-n3ccccc3=O)c2O)nc1` [Example 193, N-benzyl-6-(5-hydroxy-4-(2-oxopyridin-1(2H)-yl)-1H-pyrazol-1-yl)nicotinamide]: 7.57 and 2690 nM.
On to `COc1cc(C#N)ccc1-c1cnn(-c2ccc(C(=O)NCC3CCOCC3)cn2)c1O` [Example 194, 6-(4-(4-cyano-2-methoxyphenyl)-5-hydroxy-1H-pyrazol-1-yl)-N-((tetrahydro-2H-pyran-4-yl)methyl)nicotinamide], for which, in experiment [1], the “PHD Inhibition (pIC50)” value came out at 7.3. Further, the EC50 in experiment [2] is 513 nM.
The matching figures for `COc1cc(C#N)ccc1-c1cnn(-c2ccc(C(=O)NCc3ccccc3)cn2)c1O` [Example 195, N-benzyl-6-(4-(4-cyano-2-methoxyphenyl)-5-hydroxy-1H-pyrazol-1-yl)nicotinamide]: 7.01 and 2510 nM.
The matching figures for `N#Cc1ccc(-c2cnn(-c3ccc(C(=O)NCc4ccccc4)cn3)c2O)c(Cl)c1` [Example 196, N-benzyl-6-(4-(2-chloro-4-cyanophenyl)-5-hydroxy-1H-pyrazol-1-yl)nicotinamide]: 6.84 and 3550 nM.
The matching figures for `N#Cc1ccc(-c2cnn(-c3ccc(C(=O)NCC4CCOCC4)cn3)c2O)c(Cl)c1` [Example 197, 6-(4-(2-chloro-4-cyanophenyl)-5-hydroxy-1H-pyrazol-1-yl)-N-((tetrahydro-2H-pyran-4-yl)methyl)nicotinamide]: 6.83 and 1580 nM.
For `CC1(NC(=O)c2ccc(-n3ncc(-c4ccc(C#N)cc4)c3O)nc2)CC1` [Example 198, 6-(4-(4-cyanophenyl)-5-hydroxy-1H-pyrazol-1-yl)-N-(1-methylcyclopropyl)nicotinamide], the “PHD Inhibition (pIC50)” value in experiment [1] was 7.35. Besides, in experiment [2], the EC50 is 741 nM.
The matching figures for `COCC1(NC(=O)c2ccc(-n3ncc(-c4ccc(C#N)cc4)c3O)nc2)CCC1` [Example 199, 6-(4-(4-cyanophenyl)-5-hydroxy-1H-pyrazol-1-yl)-N-(1-(methoxymethyl)cyclobutyl)nicotinamide]: 6.89 and 2340 nM.
The matching figures for `COCC(C)(C)NC(=O)c1ccc(-n2ncc(-c3ccc(C#N)cc3)c2O)nc1` [Example 200, 6-(4-(4-cyanophenyl)-5-hydroxy-1H-pyrazol-1-yl)-N-(1-methoxy-2-methylpropan-2-yl)nicotinamide]: 7.09 and 1100 nM.
The matching figures for `COCC1(NC(=O)c2ccc(-n3ncc(-c4ccc(C#N)cc4)c3O)nc2)CC1` [Example 201, 6-(4-(4-cyanophenyl)-5-hydroxy-1H-pyrazol-1-yl)-N-(1-(methoxymethyl)cyclopropyl)nicotinamide]: 7.29 and 776 nM.
On to `CC(C)(C)NC(=O)c1ccc(-n2ncc(-c3ccc(C#N)cc3)c2O)nc1` [Example 202, N-(tert-butyl)-6-(4-(4-cyanophenyl)-5-hydroxy-1H-pyrazol-1-yl)nicotinamide], for which the “PHD Inhibition (pIC50)” value in experiment [1] is listed as 7.23. Also, the EC50 in experiment [2] is 724 nM.
The matching figures for `COCCCNC(=O)c1ccc(-n2ncc(-c3ccnc(OC)c3)c2O)nc1` [Example 203, 6-(5-hydroxy-4-(2-methoxypyridin-4-yl)-1H-pyrazol-1-yl)-N-(3-methoxypropyl)nicotinamide]: 7.1 and 603 nM.
`COc1cc(-c2cnn(-c3ccc(C(=O)NC4CC4)cn3)c2O)ccn1` [Example 204, N-cyclopropyl-6-(5-hydroxy-4-(2-methoxypyridin-4-yl)-1H-pyrazol-1-yl)nicotinamide]: in experiment [1], the “PHD Inhibition (pIC50)” value was determined as 7.08. The EC50 in experiment [2] is 468 nM.
The matching figures for `COCC1(NC(=O)c2ccc(-n3ncc(-c4ccnc(OC)c4)c3O)nc2)CC1` [Example 205, 6-(5-hydroxy-4-(2-methoxypyridin-4-yl)-1H-pyrazol-1-yl)-N-(1-(methoxymethyl)cyclopropyl)nicotinamide]: 6.89 and 631 nM.
The matching figures for `Cc1cc(C#N)ccc1-c1cnn(-c2ccc(C(=O)NCCC3CCCCO3)cn2)c1O` (centres unmarked) [Example 206, 6-(4-(4-cyano-2-methylphenyl)-5-hydroxy-1H-pyrazol-1-yl)-N-(2-(tetrahydro-2H-pyran-2-yl)ethyl)nicotinamide]: 8.2 and 110 nM.
The matching figures for `COc1cc(-c2cnn(-c3ccc(C(=O)NCCC4CCCCO4)cn3)c2O)ccn1` (centres unmarked) [Example 207, 6-(5-hydroxy-4-(2-methoxypyridin-4-yl)-1H-pyrazol-1-yl)-N-(2-(tetrahydro-2H-pyran-2-yl)ethyl)nicotinamide]: 8.3 and 123 nM.
Take `COCCC1(NC(=O)c2ccc(-n3ncc(-c4ccc(C#N)cc4)c3O)nc2)CC1` [Example 208, 6-(4-(4-cyanophenyl)-5-hydroxy-1H-pyrazol-1-yl)-N-(1-(2-methoxyethyl)cyclopropyl)nicotinamide]: the “PHD Inhibition (pIC50)” value in experiment [1] was 7.8. Also, in experiment [2], the EC50 was 269 nM.
In the case of `COCCC1(NC(=O)c2ccc(-n3ncc(-c4ccnc(OC)c4)c3O)nc2)CC1` [Example 209, 6-(5-hydroxy-4-(2-methoxypyridin-4-yl)-1H-pyrazol-1-yl)-N-(1-(2-methoxyethyl)cyclopropyl)nicotinamide], in experiment [1], the “PHD Inhibition (pIC50)” value turned out to be 6.98. Further, the EC50 in experiment [2] is 398 nM.
The matching figures for `Cn1ccc(-c2cnn(-c3ccc(C(=O)NCC4CCOCC4)cn3)c2O)cc1=O` [Example 211, 6-(5-hydroxy-4-(1-methyl-2-oxo-1,2-dihydropyridin-4-yl)-1H-pyrazol-1-yl)-N-((tetrahydro-2H-pyran-4-yl)methyl)nicotinamide]: 6.47 and 50100 nM.
The matching figures for `COCCCNC(=O)c1ccc(-n2ncc(-c3ccc(C#N)cc3F)c2O)nc1` [Example 213, 6-(4-(4-cyano-2-fluorophenyl)-5-hydroxy-1H-pyrazol-1-yl)-N-(3-methoxypropyl)nicotinamide]: 7.45 and 380 nM.
In the case of `COCCCNC(=O)c1ccc(-n2ncc(-c3cc(C)nc(OC)c3)c2O)nc1` [Example 214, 6-(5-hydroxy-4-(2-methoxy-6-methylpyridin-4-yl)-1H-pyrazol-1-yl)-N-(3-methoxypropyl)nicotinamide], in experiment [1] (read-out: PHD Inhibition (pIC50) (converted)), the IC50 was 174 nM. For the same compound, in experiment [2], the EC50 was 2820 nM.
With `COCCC1(NC(=O)c2ccc(-n3ncc(-c4ccc(C#N)cc4C)c3O)nc2)CC1` [Example 215, 6-(4-(4-cyano-2-methylphenyl)-5-hydroxy-1H-pyrazol-1-yl)-N-(1-(2-methoxyethyl)cyclopropyl)nicotinamide], the “PHD Inhibition (pIC50)” value in experiment [1] is reported as 7.21. In addition, the EC50 in experiment [2] was 257 nM.
The matching figures for `COCCCNC(=O)c1ccc(-n2ncc(-c3ccc(=O)n(C)c3)c2O)nc1` [Example 216, 6-(5-hydroxy-4-(1-methyl-6-oxo-1,6-dihydropyridin-3-yl)-1H-pyrazol-1-yl)-N-(3-methoxypropyl)nicotinamide]: 7.1 and 5250 nM.
For the compound `COCCCNC(=O)c1ccc(-n2ncc(-c3ccc(CC#N)cc3)c2O)nc1` [Example 217, 6-(4-(4-(cyanomethyl)phenyl)-5-hydroxy-1H-pyrazol-1-yl)-N-(3-methoxypropyl)nicotinamide], in experiment [1], the “PHD Inhibition (pIC50)” value is 8.1. In addition, the EC50 in experiment [2] is 1230 nM.
The matching figures for `CCOc1cc(-c2cnn(-c3ccc(C(=O)NCCCOC)cn3)c2O)ccn1` [Example 218, 6-(4-(2-ethoxypyridin-4-yl)-5-hydroxy-1H-pyrazol-1-yl)-N-(3-methoxypropyl)nicotinamide]: 7.9 and 4680 nM.
